Source: US20160130278A1 (TAISHO PHARMACEUTICAL CO., LTD, priority 2013, published 2016)

Target: T1, human type 1 glycine transporter (GlyT1) (Homo sapiens, UniProt P48067)
T1 construct: T98G cells (glioma cells) expressing human type 1 glycine transporter (GlyT1) were used
T1 sequence (P48067 1-706): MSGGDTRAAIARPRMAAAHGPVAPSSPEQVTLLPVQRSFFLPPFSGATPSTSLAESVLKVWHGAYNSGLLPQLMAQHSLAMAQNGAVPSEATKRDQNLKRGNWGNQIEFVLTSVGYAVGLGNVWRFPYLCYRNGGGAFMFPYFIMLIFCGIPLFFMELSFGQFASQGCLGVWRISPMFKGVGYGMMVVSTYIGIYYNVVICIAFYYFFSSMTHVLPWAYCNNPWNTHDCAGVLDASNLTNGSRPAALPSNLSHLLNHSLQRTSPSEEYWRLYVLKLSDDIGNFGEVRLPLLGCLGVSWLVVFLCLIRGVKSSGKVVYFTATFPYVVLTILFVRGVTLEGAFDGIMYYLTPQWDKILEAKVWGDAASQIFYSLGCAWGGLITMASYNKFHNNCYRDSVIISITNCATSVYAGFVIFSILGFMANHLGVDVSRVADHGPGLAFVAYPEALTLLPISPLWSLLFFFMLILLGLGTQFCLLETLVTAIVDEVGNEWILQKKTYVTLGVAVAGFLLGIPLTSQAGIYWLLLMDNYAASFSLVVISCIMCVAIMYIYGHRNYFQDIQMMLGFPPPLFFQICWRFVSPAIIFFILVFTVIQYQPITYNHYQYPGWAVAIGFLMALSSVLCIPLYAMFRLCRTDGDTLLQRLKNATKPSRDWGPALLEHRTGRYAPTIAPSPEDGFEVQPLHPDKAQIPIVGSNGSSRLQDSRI
Experiment: Glycine uptake inhibition experiment ([3H]glycine uptake)
Format: cell-based
Outline: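 T98G glioma cells expressing human GlyT1 were pretreated 10 min with compound in HEPES buffer pH 7.4 (0.2% BSA), then incubated with compound plus 250 nM final [3H]glycine for 15 min at room temperature. Intracellular radioactivity was counted after NaOH lysis; 10 μM ALX5407 defined non-specific uptake. IC50 came from 10^−9–10^−5 M curves.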

Row | IC50 (GlyT1) [nM] | IC50 (human GlyT1) [nM] | Structure (SMILES)
1 | 82 | – | O=C(NC(c1cccc(Cl)c1F)C1(O)CCC(F)CC1)c1nccc(C(F)(F)F)c1Cl (single isomer, unassigned) [Compound 199, 3-chloro-N-[(3-chloro-2-fluorophenyl)(4-fluoro-1-hydroxycyclohexyl)methyl]-4-(trifluoromethyl)pyridine-2-carboxamide]
2 | 200 | – | O=C(NC(c1cccnc1Cl)[C@]1(O)CC[C@@H](F)CC1)c1cc(C(F)(F)F)ncc1Cl (single isomer, unassigned) [Compound 323, 5-chloro-N-[(2-chloropyridin-3-yl)(cis-4-fluoro-1-hydroxycyclohexyl)methyl]-2-(trifluoromethyl)pyridine-4-carboxamide]
3 | 1100 | – | O=C(NC(c1cccc(Cl)c1)C1(O)CCC(O)C1)c1nccc(C(F)(F)F)c1Cl (stereo not drawn) [Compound 128, 3-chloro-N-[(3-chlorophenyl)(1,3-dihydroxycyclopentyl)methyl]-4-(trifluoromethyl)pyridine-2-carboxamide]
4 | 190 | – | O=C(NC(c1cccc(Cl)n1)[C@]1(O)CC[C@@H](F)CC1)c1cc(C(F)(F)F)ccc1Cl (single isomer, unassigned) [Compound 362]
5 | – | 230 | O=C(NC(c1cccc(F)c1)C1(O)CCC(F)(F)CC1)c1ccnc(C(F)(F)F)c1Cl (single isomer, unassigned) [Compound 400, 3-chloro-N-[(4,4-difluoro-1-hydroxycyclohexyl)(3-fluorophenyl)methyl]-2-(trifluoromethyl)pyridine-4-carboxamide]
6 | 200 | – | O=C(NC(c1cccc(Cl)n1)[C@]1(O)CC[C@@H](F)CC1)c1nccc(C(F)F)c1Cl (single isomer, unassigned) [Compound 328, 3-chloro-N-[(6-chloropyridin-2-yl)(cis-4-fluoro-1-hydroxycyclohexyl)methyl]-4-(difluoromethyl)pyridine-2-carboxamide]
7 | 150 | – | O=C(N[C@@H](c1cccc(Cl)c1)[C@]1(O)CC[C@@H](F)CC1)c1ccnc(C(F)(F)F)c1Cl [Compound 186, 3-chloro-N-[(S)-(3-chlorophenyl)(cis-4-fluoro-1-hydroxycyclohexyl)methyl]-2-(trifluoromethyl)pyridine-4-carboxamide]
8 | 390 | – | O=C(NC(c1ccccc1F)[C@]1(O)CC[C@@H](F)CC1)c1nccc(C(F)(F)F)c1Cl (single isomer, unassigned) [Compound 239, 3-chloro-N-[(cis-4-fluoro-1-hydroxycyclohexyl)(2-fluorophenyl)methyl]-4-(trifluoromethyl)pyridine-2-carboxamide]
9 | 840 | – | CCn1cc(-c2cccc(C(NC(=O)c3cccc(C(F)(F)F)c3C)C3(O)CCC(F)(F)CC3)c2)cn1 (single isomer, unassigned) [Compound 150, N-{(4,4-difluoro-1-hydroxycyclohexyl)[3-(1-ethyl-1H-pyrazol-4-yl)phenyl]methyl}-2-methyl-3-(trifluoromethyl)benzamide]
10 | 6700 | – | O=C(N[C@H](c1cccc(Cl)c1)[C@]1(O)CC[C@@H](F)CC1)c1nccc(C(F)(F)F)c1Cl [Compound 161, 3-chloro-N-[(R)-(3-chlorophenyl)(cis-4-fluoro-1-hydroxycyclohexyl)methyl]-4-(trifluoromethyl)pyridine-2-carboxamide]
11 | – | 120 | CS(=O)(=O)c1cnc(C(F)(F)F)cc1C(=O)NC(c1ccccc1Cl)C1(O)CCC(F)(F)CC1 (single isomer, unassigned) [Compound 403, N-[(2-chlorophenyl)(4,4-difluoro-1-hydroxycyclohexyl)methyl]-5-(methylsulfonyl)-2-(trifluoromethyl)pyridine-4-carboxamide]
12 | 410 | – | O=C(NC(c1cccc(F)c1Cl)[C@]1(O)CC[C@@H](F)CC1)c1ccc(C(F)(F)F)cc1Cl (single isomer, unassigned) [Compound 298, 2-chloro-N-[(2-chloro-3-fluorophenyl)(cis-4-fluoro-1-hydroxycyclohexyl)methyl]-4-(trifluoromethyl)benzamide]
13 | 210 | – | O=C(NC(c1cccc(Cl)c1)C1(O)CCC(F)(F)CC1)c1ccnc(C(F)(F)F)c1Cl (single isomer, unassigned) [Compound 167, 3-chloro-N-[(3-chlorophenyl)(4,4-difluoro-1-hydroxycyclohexyl)methyl]-2-(trifluoromethyl)pyridine-4-carboxamide]
14 | 2000 | – | COc1cc(C(F)(F)F)cc(C(F)(F)F)c1C(=O)NC(c1ccccc1)C1(O)CCCC1 (stereo not drawn) [Compound 29, N-[(1-hydroxycyclopentyl)(phenyl)methyl]-2-methoxy-4,6-bis(trifluoromethyl)benzamide]
15 | 490 | – | O=C(NC(c1cccc(-c2ccccn2)c1)C1(O)CCC(F)(F)CC1)c1cc(C(F)(F)F)ccc1Cl (single isomer, unassigned) [Compound 190, 2-chloro-N-[(4,4-difluoro-1-hydroxycyclohexyl)[3-(pyridin-2-yl)phenyl]methyl}-5-(trifluoromethyl)benzamide]
16 | 530 | – | CS(=O)(=O)c1ccc(Cl)cc1C(=O)NC(c1cccc(F)c1Cl)[C@]1(O)CC[C@@H](F)CC1 (single isomer, unassigned) [Compound 364, 5-chloro-N-[(2-chloro-3-fluorophenyl)(cis-4-fluoro-1-hydroxycyclohexyl)methyl]-2-(methylsulfonyl)benzamide]
17 | 130 | – | O=C(NC(c1cccc(F)c1Cl)[C@]1(O)CC[C@@H](F)CC1)c1ccc(C(F)(F)F)cc1-n1cccn1 (single isomer, unassigned) [Compound 390, N-[(2-chloro-3-fluorophenyl)(cis-4-fluoro-1-hydroxycyclohexyl)methyl]-2-(1H-pyrazol-1-yl)-4-(trifluoromethyl)benzamide]
18 | 1200 | – | O=C(NC(c1cccc(F)c1Cl)[C@]1(O)CC[C@@H](F)CC1)c1ncccc1Cl (single isomer, unassigned) [Compound 249, 3-chloro-N-[(2-chloro-3-fluorophenyl)(cis-4-fluoro-1-hydroxycyclohexyl)methyl]pyridine-2-carboxamide]
19 | 88 | – | O=C(NC(c1cc(Cl)ccn1)[C@]1(O)CC[C@@H](F)CC1)c1cccc(C(F)(F)F)c1Cl (single isomer, unassigned) [Compound 331, 2-chloro-N-[(4-chloropyridin-2-yl)(cis-4-fluoro-1-hydroxycyclohexyl)methyl]-3-(trifluoromethyl)benzamide]
20 | 300 | – | O=C(NC(c1cccc(Br)c1)C1(O)CCC(F)(F)CC1)c1nccc(C(F)(F)F)c1Cl (single isomer, unassigned) [Compound 90, N-[(3-bromophenyl)(4,4-difluoro-1-hydroxycyclohexyl)methyl]-3-chloro-4-(trifluoromethyl)pyridine-2-carboxamide]
21 | 900 | – | O=C(NC(c1cccc(F)c1Cl)[C@]1(O)CC[C@@H](F)CC1)c1cccc(Cl)c1Cl (single isomer, unassigned) [Compound 248, 2,3-dichloro-N-[(2-chloro-3-fluorophenyl)(cis-4-fluoro-1-hydroxycyclohexyl)methyl]benzamide]
22 | 530 | – | CCn1cc(-c2cccc(C(NC(=O)c3cccc(Cl)c3Cl)C3(O)CCC(F)(F)CC3)c2)cn1 (single isomer, unassigned) [Compound 144, 2,3-dichloro-N-{(4,4-difluoro-1-hydroxycyclohexyl)[3-(1-ethyl-1H-pyrazol-4-yl)phenyl]methyl}benzamide]
23 | 200 | – | O=C(NC(c1ccccc1F)C1(O)CCCC1)c1nccc(C(F)(F)F)c1Cl (single isomer, unassigned) [Compound 60, 3-chloro-N-[(2-fluorophenyl)(1-hydroxycyclopentyl)methyl]-4-(trifluoromethyl)pyridine-2-carboxamide]
24 | 43 | – | CCn1cc(-c2cccc([C@H](NC(=O)c3cccc(C(F)(F)F)c3Cl)C3(O)CCCC3)c2)cn1 [Compound 74, 2-chloro-N-[(S)-[3-(1-ethyl-1H-pyrazol-4-yl)phenyl](1-hydroxycyclopentyl)methyl]-3-(trifluoromethyl)benzamide]
25 | 670 | – | O=C(NC(c1cccc(Br)c1)C1(O)CCCC1)c1cccc(C(F)(F)F)c1Cl (stereo not drawn) [Compound 2, N-[(3-bromophenyl)(1-hydroxycyclopentyl)methyl]-2-chloro-3-(trifluoromethyl)benzamide]
26 | 740 | – | O=C(NC(c1cccc(-c2cccnc2)c1)C1(O)CCCCC1)c1nccc(C(F)(F)F)c1Cl (single isomer, unassigned) [Compound 27, 3-chloro-N-{(1-hydroxycyclohexyl)[3-(pyridin-3-yl)phenyl]methyl}-4-(trifluoromethyl)pyridine-2-carboxamide]
27 | 5000 | – | CCn1cc(-c2cccc(C(NC(=O)c3ccnc(C(F)(F)F)c3)C3(O)CCC(F)(F)CC3)c2)cn1 (stereo not drawn) [Compound 172, N-{(4,4-difluoro-1-hydroxycyclohexyl)[3-(1-ethyl-1H-pyrazol-4-yl)phenyl]methyl}-2-(trifluoromethyl)pyridine-4-carboxamide]
